# Columns and labels:
# Format in all cases: in vivo
# [1] = system: ABUTH, Velvetleaf, Abutilon theophrasti, Medic.; assay: Postemergence herbicidal evaluation (Example 147); conditions: rating scale 0-9, two to three weeks after treatment
# Outline: (§1)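 Visual 0-9 rating against an untreated control, scored roughly two to three weeks after a postemergence spray of two-week-old seedlings. Dose equivalent about 0.016 to 0.032 kg/ha, delivered in 80/20 acetone/water with 1.0% SUN-IT II at 40 psi.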
# [2] = system: ALOMY, Blackgrass, Alopecurus myosuroides; assay: Postemergence herbicidal evaluation (Example 147); conditions: rating scale 0-9, two to three weeks after treatment
# Outline: as §1
# [3] = system: AMBEL, Ragweed, Common, Ambrosia artemiisifolia, L.; assay: Postemergence herbicidal evaluation (Example 147); conditions: rating scale 0-9, two to three weeks after treatment
# Outline: as §1
# [4] = system: CHEAL, Lambsquarters, Chenopodium album, L. Common; assay: Postemergence herbicidal evaluation (Example 147); conditions: rating scale 0-9, two to three weeks after treatment
# Outline: as §1
# [5] = system: DIGSA, Crabgrass, (Hairy) L, Digitaria sanguinalis, (L)Scop; assay: Postemergence herbicidal evaluation (Example 147); conditions: rating scale 0-9, two to three weeks after treatment
# Outline: as §1
# [6] = system: ECHCG, Barnyardgrass, Echinochloa crusgalli, (L.)Beau; assay: Postemergence herbicidal evaluation (Example 147); conditions: rating scale 0-9, two to three weeks after treatment
# Outline: as §1
# [7] = system: GLXMA, Soybean, Glycine max, (L.) Merr.; assay: Postemergence herbicidal evaluation (Example 147); conditions: rating scale 0-9, two to three weeks after treatment
# Outline: as §1
# [8] = system: IPOHE, Morningglory, Ivyleaf, Ipomoea hederacea, (L)Jacq.; assay: Postemergence herbicidal evaluation (Example 147); conditions: rating scale 0-9, two to three weeks after treatment
# Outline: as §1
# [9] = system: SETVI, Green foxtail, Setaria viridis, (L.)Beau; assay: Postemergence herbicidal evaluation (Example 147); conditions: rating scale 0-9, two to three weeks after treatment
# Outline: as §1
# [10] = system: TRZAW, Winter wheat, Tritium Aestivum, L. (Winter); assay: Postemergence herbicidal evaluation (Example 147); conditions: rating scale 0-9, two to three weeks after treatment
# Outline: as §1
# [11] = system: XANST, Cocklebur, Xanthium strumariam; assay: Postemergence herbicidal evaluation (Example 147); conditions: rating scale 0-9, two to three weeks after treatment
# Outline: as §1
# [12] = system: ZEAMX, Field corn, Zea mays L.; assay: Postemergence herbicidal evaluation (Example 147); conditions: rating scale 0-9, two to three weeks after treatment
# Outline: as §1
# [13] = system: ABUTH, Velvetleaf, Abutilon theophrasti, Medic.; assay: Preemergence herbicidal evaluation (Example 148); conditions: rating scale 0-9, two to four weeks after treatment
# Outline: (§2)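 Following sowing, cups received a soil spray of the compound dissolved in aqueous acetone, dosed to about 0.125 to 0.250 kg per hectare. Growth continued in the greenhouse under routine care before visual scoring at two to four weeks.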
# [14] = system: ALOMY, Blackgrass, Alopecurus myosuroides; assay: Preemergence herbicidal evaluation (Example 148); conditions: rating scale 0-9, two to four weeks after treatment
# Outline: as §2
# [15] = system: AMBEL, Ragweed, Common, Ambrosia artemiisifolia, L.; assay: Preemergence herbicidal evaluation (Example 148); conditions: rating scale 0-9, two to four weeks after treatment
# Outline: as §2
# [16] = system: CHEAL, Lambsquarters, Chenopodium album, L. Common; assay: Preemergence herbicidal evaluation (Example 148); conditions: rating scale 0-9, two to four weeks after treatment
# Outline: as §2
# [17] = system: DIGSA, Crabgrass, (Hairy) L, Digitaria sanguinalis, (L)Scop; assay: Preemergence herbicidal evaluation (Example 148); conditions: rating scale 0-9, two to four weeks after treatment
# Outline: as §2
# [18] = system: ECHCG, Barnyardgrass, Echinochloa crusgalli, (L.)Beau; assay: Preemergence herbicidal evaluation (Example 148); conditions: rating scale 0-9, two to four weeks after treatment
# Outline: as §2
# [19] = system: GLXMA, Soybean, Glycine max, (L.) Merr.; assay: Preemergence herbicidal evaluation (Example 148); conditions: rating scale 0-9, two to four weeks after treatment
# Outline: as §2
# [20] = system: IPOHE, Morningglory, Ivyleaf, Ipomoea hederacea, (L)Jacq.; assay: Preemergence herbicidal evaluation (Example 148); conditions: rating scale 0-9, two to four weeks after treatment
# Outline: as §2
# [21] = system: SETVI, Green foxtail, Setaria viridis, (L.)Beau; assay: Preemergence herbicidal evaluation (Example 148); conditions: rating scale 0-9, two to four weeks after treatment
# Outline: as §2
# [22] = system: TRZAW, Winter wheat, Tritium Aestivum, L. (Winter); assay: Preemergence herbicidal evaluation (Example 148); conditions: rating scale 0-9, two to four weeks after treatment
# Outline: as §2
# [23] = system: XANST, Cocklebur, Xanthium strumariam; assay: Preemergence herbicidal evaluation (Example 148); conditions: rating scale 0-9, two to four weeks after treatment
# Outline: as §2
# [24] = system: ZEAMX, Field corn, Zea mays L.; assay: Preemergence herbicidal evaluation (Example 148); conditions: rating scale 0-9, two to four weeks after treatment
# Outline: as §2
structure (smiles),measurement,setting,value
CN(Cc1cccc(Cl)c1)S(=O)(=O)NC(=O)c1cc(-n2c(=O)cc(C(F)(F)F)n(C)c2=O)c(F)cc1Cl [Example 55],Postemergence herbicidal rating ABUTH,[1]; rate 0.016 kg/ha,9.0
same,Postemergence herbicidal rating ABUTH,[1]; rate 0.032 kg/ha,9.0
same,Postemergence herbicidal rating ALMOY,[2]; rate 0.016 kg/ha,2.0
same,Postemergence herbicidal rating ALMOY,[2]; rate 0.032 kg/ha,2.0
same,Postemergence herbicidal rating AMBEL,[3]; rate 0.016 kg/ha,8.0
same,Postemergence herbicidal rating AMBEL,[3]; rate 0.032 kg/ha,9.0
same,Postemergence herbicidal rating CHEAL,[4]; rate 0.016 kg/ha,7.0
same,Postemergence herbicidal rating CHEAL,[4]; rate 0.032 kg/ha,7.0
same,Postemergence herbicidal rating DIGSA,[5]; rate 0.016 kg/ha,5.0
same,Postemergence herbicidal rating DIGSA,[5]; rate 0.032 kg/ha,6.0
same,Postemergence herbicidal rating ECHCG,[6]; rate 0.016 kg/ha,7.0
same,Postemergence herbicidal rating ECHCG,[6]; rate 0.032 kg/ha,7.0
same,Postemergence herbicidal rating GLXMA,[7]; rate 0.016 kg/ha,8.0
same,Postemergence herbicidal rating GLXMA,[7]; rate 0.032 kg/ha,8.0
same,Postemergence herbicidal rating IPOHE,[8]; rate 0.016 kg/ha,8.0
same,Postemergence herbicidal rating IPOHE,[8]; rate 0.032 kg/ha,9.0
same,Postemergence herbicidal rating SETVI,[9]; rate 0.016 kg/ha,7.0
same,Postemergence herbicidal rating SETVI,[9]; rate 0.032 kg/ha,8.0
same,Postemergence herbicidal rating TRZAW,[10]; rate 0.016 kg/ha,6.0
same,Postemergence herbicidal rating TRZAW,[10]; rate 0.032 kg/ha,6.0
same,Postemergence herbicidal rating XANST,[11]; rate 0.016 kg/ha,9.0
same,Postemergence herbicidal rating XANST,[11]; rate 0.032 kg/ha,8.0
same,Postemergence herbicidal rating ZEAMX,[12]; rate 0.016 kg/ha,8.0
same,Postemergence herbicidal rating ZEAMX,[12]; rate 0.032 kg/ha,8.0
same,Preemergence herbicidal rating ABUTH,[13]; rate 0.125 kg/ha,9.0
same,Preemergence herbicidal rating ABUTH,[13]; rate 0.25 kg/ha,9.0
same,Preemergence herbicidal rating ALMOY,[14]; rate 0.125 kg/ha,0.0
same,Preemergence herbicidal rating ALMOY,[14]; rate 0.25 kg/ha,0.0
same,Preemergence herbicidal rating AMBEL,[15]; rate 0.125 kg/ha,8.0
same,Preemergence herbicidal rating AMBEL,[15]; rate 0.25 kg/ha,9.0
same,Preemergence herbicidal rating CHEAL,[16]; rate 0.125 kg/ha,8.0
same,Preemergence herbicidal rating CHEAL,[16]; rate 0.25 kg/ha,9.0
same,Preemergence herbicidal rating DIGSA,[17]; rate 0.125 kg/ha,8.0
same,Preemergence herbicidal rating DIGSA,[17]; rate 0.25 kg/ha,8.0
same,Preemergence herbicidal rating ECHCG,[18]; rate 0.125 kg/ha,5.0
same,Preemergence herbicidal rating ECHCG,[18]; rate 0.25 kg/ha,9.0
same,Preemergence herbicidal rating GLXMA,[19]; rate 0.125 kg/ha,8.0
same,Preemergence herbicidal rating GLXMA,[19]; rate 0.25 kg/ha,8.0
same,Preemergence herbicidal rating IPOHE,[20]; rate 0.125 kg/ha,8.0
same,Preemergence herbicidal rating IPOHE,[20]; rate 0.25 kg/ha,9.0
same,Preemergence herbicidal rating SETVI,[21]; rate 0.125 kg/ha,6.0
same,Preemergence herbicidal rating SETVI,[21]; rate 0.25 kg/ha,8.0
same,Preemergence herbicidal rating TRZAW,[22]; rate 0.125 kg/ha,1.0
same,Preemergence herbicidal rating TRZAW,[22]; rate 0.25 kg/ha,2.0
same,Preemergence herbicidal rating XANST,[23]; rate 0.125 kg/ha,6.0
same,Preemergence herbicidal rating XANST,[23]; rate 0.25 kg/ha,7.0
same,Preemergence herbicidal rating ZEAMX,[24]; rate 0.125 kg/ha,0.0
same,Preemergence herbicidal rating ZEAMX,[24]; rate 0.25 kg/ha,1.0

# Source: patent US6689773B2, “Uracil substituted phenyl sulfamoyl carboxamides” (BASF Aktiengesellschaft, priority 2000, dated 2004)
